Measurements published in US20140106387A1, “METHOD FOR CONTROLLING NAD(P)/NAD(P)H RATIO BY OXIDOREDUCTASE” (MD BIOALPHA CO., LTD., priority 2006, published 2014).

What was measured:
[1] = system: HEK293 cells; test: intracellular NADH / NAD(P)H concentration in HEK293 cells; type: cell-based, human; conditions: for intracellular NADH concentration: 2 hours
Procedure: 2) Determination of Intracellular NAD(P)H Using a Water-Soluble Tetrazolium Salt-8 (WST-8) in Living Cells:
A water-soluble tetrazolium salt was used to monitor the amount of NAD(P)H through its reduction to a yellow colored formazan dye. The total amount of NAD(P)H within viable cells in the medium was determined periodically by a spectrophotometer. Cells were seeded in 96-well plates (2×10^4 cells/well) and were cultured in 100 μl of a medium containing fetal bovine serum (FBS) and antibiotics for 24 hours. Immediately after treatment of the cells with a candidate compound (e.g., pyrano-1,2-naphthoquinone) at indicated concentrations and a 1/10 volume of a CCK-8 solution (Dojindo Molecular Technology), absorbance measurements were carried out using a spectrophotometer. The CCK-8 solution consisted of a water-soluble 2-(2-methoxy-4-nitrophenyl)-3-(4-nitrophenyl)-5-(2,4-disulfophenyl)-2H-tetrazolium monosodium salt (WST-8, 5 mM) and 1-methoxy-5-methylphenazinium methylsulfate (1-methoxy PMS, 0.2 mM) as an electron mediator. WST-8 produced a water-soluble yellow colored formazan dye through its bioreduction either in the presence of an electron carrier, 1-methoxy PMS and NAD(P)H or directly by NAD(P)H. Therefore, the reduction in tetrazolium salts mostly depends on the amount of intracellular NAD(P)H. The amount of formazan dye produced by the living cells in the medium was determined periodically at a wavelength of 450 nm (reference filter. 650 nm) by a spectrophotometer and compared to the values of control. In addition, a medium blank was prepared with only medium and physiological saline.
In order to monitor monochromatic fluorescence (350 nm), light was illuminated using a 75 W xenon arc lamp directed via a 10 Hz chopper wheel; specific fluorescence intensity was measured at a wavelength of 405±15 nm and 460±10 nm.
Specifically, the NQO1 activity and changes in the intracellular NAD(P)H fluorescence concentration in the presence/absence of NQO1 activity were measured in HepG2, HEK293 and pSG5 HA-NQO1 or pSG5 HA NQO1 C609T-inserted HEK293 cells.

[2] = system: HEK293 cells; test: calcium influx in NQO1-deficient HEK293 cells; type: cell-based, human
Procedure: Cells were grown on a coverslip in a culture medium for 24 hours, maintained in an RPMI 1640 serum-free medium for 1 hour, and pretreated with a calcium indicator Fluo-4 (5 μM) for 30 min. After pretreatment, the coverslip was mounted on a slide glass. […] Using an LSM Image Browser program (Carl Zeiss), 300 images taken for 10 min every 2 seconds were sorted and ordered in a time sequence and plotted on a graph.

[3] = system: cardiomyocytes; test: mitochondrial oxygen consumption in cardiomyocytes; type: cell-based
Text: (§1) FIG. 22 is a graph showing monitoring results of mitochondrial oxygen consumption using a Clark-type oxygen electrode;

[4] = system: AMPK; test: AMPK phosphorylation in HEK293 cells (Western blot); type: cell-based, human; conditions: 10 μM, 30 min
Procedure: Cells were lysed in SDS sample buffer (62.5 mM Tris HCl (pH 6.8), 6% (w/v) SDS, 30% glycerol, 125 mM DTT, and 0.03% (w/v) bromophenol blue). The total cell lysates were boiled at a temperature of 100° C. for 5 min and electrophoresed on a sodium dodecyl sulfate-polyacrylamide gel, and proteins were transferred on a nitrocellulose membrane. The membrane was reacted in TBS (5% (w/v) milk and 0.1% Tween 20) for 1 hour, and then reacted with primary antibodies for 2 hours. Next, the membrane was developed using HRP-conjugated secondary antibodies (Phototope-HRP Western Blot Detection Kit, New England Biolabs, Beverly, Mass.).
In order to investigate the importance of an NQO1 protein in phosphorylation of AMP kinase, HepG2, MCF-7 and HEK293 cells were seeded onto 60 mm plates at a density of 1×10^6 cells/plate. After growing the cells for 24 hours, the culture medium was replaced with a serum-free medium, and cells were treated with pyrano-1,2-naphthoquinone (10 μM) for 30 min, respectively, in combination with a control group (DMSO). Cells were lysed in RIPA buffer and amounts of all proteins were quantified using a spectrophotometer, and 50 μg of the protein was subjected to electrophoresis. AMP kinase phosphorylation was examined using Anti-AMPK and Anti-pT172-AMPK, whereas the NQO1 protein was assayed using Anti-NQO1. From the fact that AMP kinase phosphorylation by pyran-1,2-naphthoquinone (10 μM) was not observed in HEK293 cells, it can be seen that the NQO1 protein is crucial for phosphorylation of AMP kinase.
In order to examine that an activity of NQO1 is important for the phosphorylation of AMP kinase, HEK293 cells were seeded onto a 6-well plate at a density of 1×10^5 cells/well, cultured for 24 hours, and transfected with pSG5-HA-NQO1 (500 ng) and pSG5-HA-NOQ1-C609T (500 ng) plasmids. After 24 hours, the culture medium was replaced with a serum-free medium, and the cells were treated with pyrano-1,2-naphthoquinone (10 μM) and AICAR (2 mM) for 30 min, in combination with a control (DMSO). AMP kinase phosphorylation were assayed using Anti-AMPK and Anti-pT172-AMPK, whereas transfected NQO1 was assayed using Anti-HA.
In addition, AMPK phosphorylation/activation was not promoted in HEK293 cells, except for HEK293 cells transfected with wild type NQO1.

[5] = system: HepG2 cells; test: mitochondrial oxygen consumption (Clark-type oxygen electrode) in HepG2 cells; type: cell-based, human
Text: as §1

**Q.** What does the source list for `CC1(C)CCC2=C(O1)c1ccccc1C(=O)C2=O` [βL, 2,2-Dimethyl-3,4-dihydro-2H-benzo[h]chromene-5,6-dione]?
**A.** intracellular NADH concentration ([1]; HEK293 cells after insertion of an NQO1 gene): concentration-dependent decrease of NADH; intracellular NADH concentration ([1]; HEK293 cells having no NQO1 activity): no change in an NADH concentration; NAD(P)H oxidation ([1]; HEK293 cells with insertion of a wild-type NQO1 gene): βL-facilitated NAD(P)H oxidation; NAD(P)H oxidation ([1]; HEK293 cells with insertion of catalytically inactive NQO1C609T gene): no oxidation of NAD(P)H; NAD(P)H oxidation ([1]; control HEK293 cells without the NQO1 activity): no such changes; calcium peak [2]: not appeared; mitochondrial oxygen consumption [3]: increased; AMP kinase phosphorylation ([4]; HEK293 cells (no NQO1)): not promoted; AMP kinase phosphorylation ([4]; HEK293 cells (no NQO1), listed as pyran-1,2-naphthoquinone): not observed; AMP kinase phosphorylation ([4]; HEK293 transfected with NQO1-C609T having no NQO1 activity): no phosphorylation of AMP kinase; mitochondrial oxygen consumption [5]: increased
